Source: ChEMBL document CHEMBL4052775, “Design, synthesis and in vitro anti-mycobacterial evaluation of gatifloxacin-1H-1,2,3-triazole-isatin hybrids” (Bioorg Med Chem Lett, 2017)
≈ marks a conversion by molar mass, not a printed value.

Key:
[1] = Selectivity index, ratio of CC50 for African green monkey Vero cells to MIC for Mycobacterium tuberculosis H37Rv ATCC 27294; assay type: toxicity; conditions: read-out: Selectivity Index
[2] = Cytotoxicity against African green monkey Vero cells assessed as reduction in cell viability after 72 hrs by MTT assay; assay type: cell-based; conditions: chlorocebus sabaeus
[3] = test system: Mycobacterium tuberculosis; assay: Antimycobacterial activity against Mycobacterium tuberculosis H37Rv ATCC 27294 by two fold dilution method; assay type: functional

Row | SMILES | selectivity ratio [1] | CC50 at 72 h [2] [µg/mL] | MIC [3] [µg/mL]
1 | COc1c(N2CCNC(C)C2)c(F)cc2c(=O)c(C(=O)O)cn(C3CC3)c12 (configuration not stated) [GATIFLOXACIN] | 160 | 125 (≈ 333 µM) | 0.78 (≈ 2.08 µM)
2 | NNC(=O)c1ccncc1 [ISONIAZID] |  | 125 (≈ 911 µM) | 0.05 (≈ 0.365 µM)
3 | CO[C@H]1/C=C/O[C@@]2(C)Oc3c(C)c(O)c4c(O)c(c(/C=N/N5CCN(C)CC5)c(O)c4c3C2=O)NC(=O)/C(C)=C\C=C\[C@H](C)[C@H](O)[C@@H](C)[C@@H](O)[C@@H](C)[C@H](OC(C)=O)[C@@H]1C [RIFAMPIN] |  | 500 (≈ 608 µM) | 0.39 (≈ 0.474 µM)
